≈ marks a conversion by molar mass, not a printed value. Where “and” joins values, the source holds several entries; their conditions need not be identical. Equal entries are not always repeated.
Experiments:
[1] = Lipophilicity by reverse phase HPLC (log k); conditions: RP-HPLC C18, MeOH 70% / H2O 30%, 30 °C
Description: The mobile phase consisted of MeOH (HPLC grade, 70%) and H2O (HPLC-Milli-Q Grade, 30%). The flow rate was 1.0 mL/min, samples were injected in a volume of 20 µL, and the column temperature was 30 °C. Detection and monitoring wavelength were 210 nm and 270 nm, respectively. Retention times (Rt) were measured in minutes. The dead time of the system (Dt) was determined as the retention time of the KI methanolic solution. Capacity factors k for individual compounds were calculated according to the formula k = (Rt – Dt)/Dt. Capacity factor k was converted to log scale and (log k) and used as a measure of lipophilicity.

[2] = test system: Trichophyton interdigitale CCM 8377; assay: Antifungal microdilution broth MIC; conditions: for MIC: Trichophyton interdigitale, CCM8377, 72 h, read-out: MIC72h TI
[3] = test system: Mycobacterium smegmatis DSM 43465; assay: Antimycobacterial microdilution broth panel MIC (resazurin); type: cell-based
[4] = test system: Mycobacterium tuberculosis H37Rv; assay: Antimycobacterial microdilution broth MIC (Alamar Blue); type: cell-based
[5] = test system: M. kansasii CNCTC My 235/80; assay: as above; type: cell-based, Mycobacterium kansasii; conditions: Mycobacterium kansasii
[6] = test system: tested bacterial strains; assay: Antibacterial microdilution broth screening, strain not specified; conditions: read-out: MIC against the tested strains (antibacterial)
[7] = In vitro cytotoxicity, CellTiter 96 Aqueous One; conditions: human
[8] = Mycolicibacterium smegmatis, DSM43465
[9] = Mycolicibacterium smegmatis, DSM43465, value in parentheses
[10] = Mycobacterium tuberculosis, H37RV, M. tuberculosis H37Rv, value in parentheses
[11] = Mycobacterium tuberculosis, H37RV, pH 6.6, M. tuberculosis H37Rv, Middlebrook 7H9 pH 6.6
[12] = M. tuberculosis H37Rv, Middlebrook 7H9 pH 6.6
[13] = M. tuberculosis H37Rv, value in parentheses

| SMILES | log k [1] | antifungal activity against TI [2] | MIC [3, 8] | MIC [3, 9] | MIC [4, 10] | MIC [4, 11] | MIC Mtb [4, 12] | MIC [2] | MIC [5] | MIC [6] | IC50 at 24 h [7] | MIC [4, 13] | MIC ([3]; value in parentheses) |
| --- | --- | --- | --- | --- | --- | --- | --- | --- | --- | --- | --- | --- | --- |
| Nc1nccnc1C(=O)NCc1ccccc1 [Compound 1, 3-Amino-N-benzylpyrazine-2-carboxamide] | 0.056 | showed activity mainly against TI | > 500 mg/L | > 2190 µM | > 438 µM | > 100 mg/L |  |  |  |  |  |  |  |
| Cc1ccccc1CNC(=O)c1nccnc1N [Compound 2, 3-Amino-N-(2-methylbenzyl)pyrazine-2-carboxamide] | 0.278 |  | > 500 mg/L | > 2060 µM | > 413 µM | > 100 mg/L |  |  |  |  |  |  |  |
| Cc1ccc(CNC(=O)c2nccnc2N)cc1 [Compound 3, 3-Amino-N-(4-methylbenzyl)pyrazine-2-carboxamide] | 0.289 | showed activity mainly against TI | > 500 mg/L | > 2060 µM | 413 µM | 50 to 100 mg/L | 100 mg/L (≈ 413 µM) |  |  |  |  |  |  |
| COc1ccc(CNC(=O)c2nccnc2N)cc1 [Compound 4, 3-Amino-N-(4-methoxybenzyl)pyrazine-2-carboxamide] | 0.026 | showed activity mainly against TI | > 500 mg/L | > 1940 µM | 387 µM | 50 to 100 mg/L | 100 mg/L (≈ 387 µM) |  |  |  |  |  |  |
| COc1ccc(CNC(=O)c2nccnc2N)c(OC)c1 [Compound 5, 3-Amino-N-(2,4-dimethoxybenzyl)pyrazine-2-carboxamide] | 0.188 |  | > 500 mg/L | > 1730 µM | > 347 µM | > 100 mg/L |  |  |  |  |  |  |  |
| Nc1nccnc1C(=O)NCc1ccc(Cl)c(Cl)c1 [Compound 6, 3-Amino-N-(3,4-dichlorobenzyl)pyrazine-2-carboxamide] | 0.493 |  | > 500 mg/L | > 1680 µM | > 336 µM | > 100 mg/L |  |  |  |  |  |  |  |
| Nc1nccnc1C(=O)NCc1cccc(C(F)(F)F)c1 [Compound 7, 3-Amino-N-(3-(trifluoromethyl)benzyl)pyrazine-2-carboxamide] | 0.282 | showed activity mainly against TI | 250 mg/L | 844 µM | 169 µM | 50 to 100 mg/L | 50 mg/L (≈ 169 µM) |  |  |  |  |  |  |
| Nc1nccnc1C(=O)NCc1ccc(C(F)(F)F)cc1 [Compound 8, 3-Amino-N-(4-(trifluoromethyl)benzyl)pyrazine-2-carboxamide] | 0.308 |  | > 500 mg/L | > 1690 µM | 169 µM | 50 to 100 mg/L | 50 mg/L (≈ 169 µM) |  |  |  |  |  |  |
| CCCCCNC(=O)c1nccnc1N [Compound 9, 3-Amino-N-pentylpyrazine-2-carboxamide] | 0.327 |  | > 500 mg/L | > 2400 µM | > 480 µM | > 100 mg/L |  | 500 µM (≈ 104 µg/mL) |  |  |  |  |  |
| CCCCCCNC(=O)c1nccnc1N [Compound 10, 3-Amino-N-hexylpyrazine-2-carboxamide] | 0.569 |  | 250 mg/L | 1120 µM | 450 µM | 100 mg/L |  | 250 µM (≈ 55.6 µg/mL) | 100 µg/mL and 450 µM | 500 µM (≈ 111 µg/mL) | 389 µM | 449.9 µM |  |
| CCCCCCCNC(=O)c1nccnc1N [Compound 11, 3-Amino-N-heptylpyrazine-2-carboxamide] | 0.813 |  | 62.5 mg/L | 264 µM | 212 µM | 50 mg/L |  | 500 µM (≈ 118 µg/mL) | 50 µg/mL and 212 µM | 250 µM (≈ 59.1 µg/mL) |  | 211.6 µM | 264.5 µM |

— PMC6479349, “Derivatives of 3-Aminopyrazine-2-carboxamides: Synthesis, Antimicrobial Evaluation, and in Vitro Cytotoxicity” (Molecules, 2019)
